Here are results for 1 molecule from patent publication EP0067897A1, “A pharmaceutical composition for use in raised intracranial pressure” (Tanabe Seiyaku Co., Ltd., priority 1981, dated 1982).

The structures appear in SMILES notation.

As a reminder, the LD50 is the dose expected to kill half of the subjects tested.

A short description of series [1]: Acute toxicity after oral administration. As to conditions: mouse, in vivo; oral administration to male mice, estimated a week after administration. The source says: Unlike those of the hypertonic solutions of glycerol or mannitol, the therapeutic effect of the propanol derivative (I) of the present invention is not ascribable to the cerebral dehydrating effect. The propanol derivative (I) may be used for the treatment or prophylaxis of increased intracranial pressure during and after brain surgical operation. Moreover, the propanol derivative (I) may be used for improving impaired consciousness, nervous disturbance and subjective symptoms (e.g., headache, nausea, vomiting) which are attributed to the cerebral diseases such as those mentioned hereinbefore. Further, whereas it is known that cerebral edema induces an increase in intracranial pressure and increased intracranial pressure serves to cause a build-up of edema which in turn impairs cerebral circulation, the propanol derivative (I) can interrupt such vicious cycle of cerebral diseases because of its potent intracranial pressure-lowering effect and ameliorate the cerebral circulatory impairment. The toxicity of the propanol derivative (I) of the invention is low.

The test system of the next series is Male SD-strain rats. Put plainly: Effect on intracranial pressure (cerebrospinal fluid pressure in the cisterna magna) in urethane-anesthetized rats after oral administration. The format is in vivo. Particulars: 8 mg/kg orally. How it is done:
Male SD-strain rats weighing […] (each group consisiting of 5 rats) were fasted for about 20 hours, and anesthetized with urethane. 1-(4-acetamido-2-methoxyphenoxy)-3-[4-(3-fluorophenyl)piperazino]-2-propanol (free base) was administered orally to the rats at a dose of 8 mg/kg. Intracranial pressure (i.e., cerebrospinal fluid pressure in the cisterna magna) was continuously monitored via a cannula inserted in the cisterna magna. The cannula was connected to a transducer, and recordings were made on graph paper. The effect of said test compound on the intracranial pressure was estimated in terms of the increase or decrease in intracranial pressure, which was calculated in accordance with the following formula: [formula]

Take `COc1cc(NC(C)=O)ccc1OCC(O)CN1CCN(c2cccc(F)c2)CC1` (stereo not shown) [1-(4-acetamido-2-methoxyphenoxy)-3-[4-(3-fluorophenyl)piperazino]-2-propanol]: the LD50 at 168 h in series [1] was ~1500 mg/kg. Besides, the “Changes in intracranial pressure (%)” value with Male SD-strain rats (20 minutes after administration, pre-dose pressure = 100 (70 ± 3.1 mm H2O), 5 rats) worked out at 85.4%; in the series with Male SD-strain rats (60 minutes after administration, pre-dose pressure = 100) it was 83.5%; with Male SD-strain rats (120 minutes after administration, pre-dose pressure = 100) it was 77.7%; in the series on Male SD-strain rats (180 minutes after administration, pre-dose pressure = 100), 76.5%; in the series with Male SD-strain rats (240 minutes after administration, pre-dose pressure = 100) it was 75.6%; with Male SD-strain rats (300 minutes after administration, pre-dose pressure = 100), 77.9%.
